Assay results as given in US20230093099A1, “COMPOUNDS AND METHODS OF TREATING CANCERS” (CULLGEN (SHANGHAI), INC., priority 2019, published 2023).
pIC50: −log10 of the molar value.

Tested on: RS4;11 cells
Experiment: Cell viability assay (CellTiter-Glo) in RS4;11 cells
Assay type: cell-based
Details: Homo sapiens, 72 h; RS4;11 cells; cell viability, 3 days, CellTiter-Glo; read-out: IC50
Outline: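 RS4;11 cells seeded at 5000 per well, exposed for 3 days to 8- or 12-point 3-fold serial dilutions. Viability read by CellTiter-Glo luminescence; IC50 fitted by nonlinear least-squares regression.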

Q: How did the pIC50 turn out when O=C(CN1CCC(n2cc(-c3cnc4cccc(-c5cc(F)c(CN6CCOCC6)c(F)c5)c4n3)cn2)CC1)NCCOCCOCCNc1cccc2c1C(=O)N(C1CCC(=O)NC1=O)C2=O (stereo not drawn) [JA-140, 2-[4-[4-[8-[3,5-Difluoro-4-(morpholinomethyl)phenyl]quinoxalin-2-yl]pyrazol-1-yl]-1-piperidyl]-N-[2-[2-[2-[[2-(2,6-dioxo-3-piperidyl)-1,3-dioxo-isoindolin-4-yl]amino]ethoxy]ethoxy]ethyl]acetamide] was run?
A: Its pIC50 is under 5.00.

Q: With O=C(CN1CCC(n2cc(-c3cnc4cccc(-c5cc(F)c(CN6CCOCC6)c(F)c5)c4n3)cn2)CC1)NCCOCCOCCOCCNc1cccc2c1C(=O)N(C1CCC(=O)NC1=O)C2=O (stereo not drawn) [JA-141, 2-[4-[4-[8-[3,5-Difluoro-4-(morpholinomethyl)phenyl]quinoxalin-2-yl]pyrazol-1-yl]-1-piperidyl]-N-[2-[2-[2-[2-[[2-(2,6-dioxo-3-piperidyl)-1,3-dioxo-isoindolin-4-yl]amino]ethoxy]ethoxy]ethoxy]ethyl]acetamide] as the molecule, how does the pIC50 read?
A: Its pIC50 is under 5.00.

Q: How did the pIC50 turn out when O=C(CN1CCC(n2cc(-c3cnc4cccc(-c5cc(F)c(CN6CCOCC6)c(F)c5)c4n3)cn2)CC1)NCCOCCOCCOCCOCCNc1cccc2c1C(=O)N(C1CCC(=O)NC1=O)C2=O (stereo not drawn) [JA-142, 2-[4-[4-[8-[3,5-Difluoro-4-(morpholinomethyl)phenyl]quinoxalin-2-yl]pyrazol-1-yl]-1-piperidyl]-N-[2-[2-[2-[2-[2-[[2-(2,6-dioxo-3-piperidyl)-1,3-dioxo-isoindolin-4-yl]amino]ethoxy]ethoxy]ethoxy]ethoxy]ethyl]acetamide] was run?
A: The pIC50 was under 5.00.

Q: How did the pIC50 turn out when O=C(CN1CCC(n2cc(-c3cnc4cccc(-c5cc(F)c(CN6CCOCC6)c(F)c5)c4n3)cn2)CC1)NCCOCCOCCOCCOCCOCCNc1cccc2c1C(=O)N(C1CCC(=O)NC1=O)C2=O (stereo not drawn) [JA-143, 2-[4-[4-[8-[3,5-Difluoro-4-(morpholinomethyl)phenyl]quinoxalin-2-yl]pyrazol-1-yl]-1-piperidyl]-N-[2-[2-[2-[2-[2-[2-[[2-(2,6-dioxo-3-piperidyl)-1,3-dioxo-isoindolin-4-yl]amino]ethoxy]ethoxy]ethoxy]ethoxy]ethoxy]ethyl]acetamide] was run?
A: The pIC50 was under 5.00.

Q: How did the pIC50 turn out when O=C(CN1CCC(n2cc(-c3cnc4cccc(-c5cc(F)c(CN6CCOCC6)c(F)c5)c4n3)cn2)CC1)NCCNc1cccc2c1C(=O)N(C1CCC(=O)NC1=O)C2=O (stereo not drawn) [JA-144, 2-[4-[4-[8-[3,5-Difluoro-4-(morpholinomethyl)phenyl]quinoxalin-2-yl]pyrazol-1-yl]-1-piperidyl]-N-[2-[[2-(2,6-dioxo-3-piperidyl)-1,3-dioxo-isoindolin-4-yl]amino]ethyl]acetamide] was run?
A: Its pIC50 is 5.62.

Q: O=C(CN1CCC(n2cc(-c3cnc4cccc(-c5cc(F)c(CN6CCOCC6)c(F)c5)c4n3)cn2)CC1)NCCCCNc1cccc2c1C(=O)N(C1CCC(=O)NC1=O)C2=O (stereo not drawn) [JA-146, 2-(4-(4-(8-(3,5-Difluoro-4-(morpholinomethyl)phenyl)quinoxalin-2-yl)-1H-pyrazol-1-yl)piperidin-1-yl)-N-(4-((2-(2,6-dioxopiperidin-3-yl)-1,3-dioxoisoindolin-4-yl)amino)butyl)acetamide] was tested. Which pIC50 did it give?
A: The pIC50 was under 5.00.

Q: How did the pIC50 turn out when O=C(CN1CCC(n2cc(-c3cnc4cccc(-c5cc(F)c(CN6CCOCC6)c(F)c5)c4n3)cn2)CC1)NCCCCCCNc1cccc2c1C(=O)N(C1CCC(=O)NC1=O)C2=O (stereo not drawn) [JA-147, 2-(4-(4-(8-(3,5-Difluoro-4-(morpholinomethyl)phenyl)quinoxalin-2-yl)-1H-pyrazol-1-yl)piperidin-1-yl)-N-(6-((2-(2,6-dioxopiperidin-3-yl)-1,3-dioxoisoindolin-4-yl)amino)hexyl)acetamide] was run?
A: The pIC50 was under 5.00.

Q: How did the pIC50 turn out when O=C(CN1CCC(n2cc(-c3cnc4cccc(-c5cc(F)c(CN6CCOCC6)c(F)c5)c4n3)cn2)CC1)NCCCCCCCNc1cccc2c1C(=O)N(C1CCC(=O)NC1=O)C2=O (stereo not drawn) [JA-148, 2-(4-(4-(8-(3,5-Difluoro-4-(morpholinomethyl)phenyl)quinoxalin-2-yl)-1H-pyrazol-1-yl)piperidin-1-yl)-N-(7-((2-(2,6-dioxopiperidin-3-yl)-1,3-dioxoisoindolin-4-yl)amino)heptyl)acetamide] was run?
A: Its pIC50 is under 5.00.

Q: How did the pIC50 turn out when O=C(CN1CCC(n2cc(-c3cnc4cccc(-c5cc(F)c(CN6CCOCC6)c(F)c5)c4n3)cn2)CC1)NCCCCCCCCNc1cccc2c1C(=O)N(C1CCC(=O)NC1=O)C2=O (stereo not drawn) [JA-149, 2-(4-(4-(8-(3,5-Difluoro-4-(morpholinomethyl)phenyl)quinoxalin-2-yl)-1H-pyrazol-1-yl)piperidin-1-yl)-N-(8-((2-(2,6-dioxopiperidin-3-yl)-1,3-dioxoisoindolin-4-yl)amino)octyl)acetamide] was run?
A: The pIC50 was under 5.00.

Q: Cc1ncsc1-c1ccc(CNC(=O)[C@@H]2C[C@@H](O)CN2C(=O)[C@@H](NC(=O)CCCCCCCCCCNC(=O)CN2CCC(n3cc(-c4cnc5cccc(-c6cc(F)c(CN7CCOCC7)c(F)c6)c5n4)cn3)CC2)C(C)(C)C)cc1 [JA-150, (2S,4R)-1-((S)-2-(11-(2-(4-(4-(8-(3,5-Difluoro-4-(morpholinomethyl)phenyl)quinoxalin-2-yl)-1H-pyrazol-1-yl)piperidin-1-yl)acetamido)undecanamido)-3,3-dimethylbutanoyl)-4-hydroxy-N-(4-(4-methylthiazol-5-yl)benzyl)pyrrolidine-2-carboxamide] was tested. Which pIC50 did it give?
A: The pIC50 was 5.65.

Q: With Cc1ncsc1-c1ccc(CNC(=O)[C@@H]2C[C@@H](O)CN2C(=O)[C@@H](NC(=O)CCOCCOCCOCCNC(=O)CN2CCC(n3cc(-c4cnc5cccc(-c6cc(F)c(CN7CCOCC7)c(F)c6)c5n4)cn3)CC2)C(C)(C)C)cc1 [JA-151, (2S,4R)-1-((S)-17-(tert-Butyl)-1-(4-(4-(8-(3,5-difluoro-4-(morpholinomethyl)phenyl)quinoxalin-2-yl)-1H-pyrazol-1-yl)piperidin-1-yl)-2,15-dioxo-6,9,12-trioxa-3,16-diazaoctadecan-18-oyl)-4-hydroxy-N-(4-(4-methylthiazol-5-yl)benzyl)pyrrolidine-2-carboxamide] as the molecule, how does the pIC50 read?
A: The pIC50 was under 5.00.

Q: How did the pIC50 turn out when Cc1ncsc1-c1ccc(CNC(=O)[C@@H]2C[C@@H](O)CN2C(=O)[C@@H](NC(=O)CCCNC(=O)CN2CCC(n3cc(-c4cnc5cccc(-c6cc(F)c(CN7CCOCC7)c(F)c6)c5n4)cn3)CC2)C(C)(C)C)cc1 [JA-152, (2S,4R)-1-((S)-2-(4-(2-(4-(4-(8-(3,5-Difluoro-4-(morpholinomethyl)phenyl)quinoxalin-2-yl)-1H-pyrazol-1-yl)piperidin-1-yl)acetamido)butanamido)-3,3-dimethylbutanoyl)-4-hydroxy-N-(4-(4-methylthiazol-5-yl)benzyl)pyrrolidine-2-carboxamide] was run?
A: The pIC50 was under 5.00.

Q: With Cc1ncsc1-c1ccc(CNC(=O)[C@@H]2C[C@@H](O)CN2C(=O)[C@@H](NC(=O)COCCNC(=O)CN2CCC(n3cc(-c4cnc5cccc(-c6cc(F)c(CN7CCOCC7)c(F)c6)c5n4)cn3)CC2)C(C)(C)C)cc1 [JA-153, (2S,4R)-1-((S)-2-(2-(2-(2-(4-(4-(8-(3,5-Difluoro-4-(morpholinomethyl)phenyl)quinoxalin-2-yl)-1H-pyrazol-1-yl)piperidin-1-yl)acetamido)ethoxy)acetamido)-3,3-dimethylbutanoyl)-4-hydroxy-N-(4-(4-methylthiazol-5-yl)benzyl)pyrrolidine-2-carboxamide] as the molecule, how does the pIC50 read?
A: The pIC50 was under 5.00.

Q: With O=C(CN1CCC(n2cc(-c3cnc4cccc(-c5cc(F)c(CN6CCOCC6)c(F)c5)c4n3)cn2)CC1)NCCCNc1cccc2c1C(=O)N(C1CCC(=O)NC1=O)C2=O (stereo not drawn) [JA-154, 2-(4-(4-(8-(3,5-Difluoro-4-(morpholinomethyl)phenyl)quinoxalin-2-yl)-1H-pyrazol-1-yl)piperidin-1-yl)-N-(3-((2-(2,6-dioxopiperidin-3-yl)-1,3-dioxoisoindolin-4-yl)amino)propyl)acetamide] as the molecule, how does the pIC50 read?
A: The pIC50 was 5.85.

Q: Cc1ncsc1-c1ccc(CNC(=O)[C@@H]2C[C@@H](O)CN2C(=O)[C@@H](NC(=O)CCNC(=O)CN2CCC(n3cc(-c4cnc5cccc(-c6cc(F)c(CN7CCOCC7)c(F)c6)c5n4)cn3)CC2)C(C)(C)C)cc1 [JA-155, (2S,4R)-1-((S)-2-(3-(2-(4-(4-(8-(3,5-Difluoro-4-(morpholinomethyl)phenyl)quinoxalin-2-yl)-1H-pyrazol-1-yl)piperidin-1-yl)acetamido)propanamido)-3,3-dimethylbutanoyl)-4-hydroxy-N-(4-(4-methylthiazol-5-yl)benzyl)pyrrolidine-2-carboxamide] was tested. Which pIC50 did it give?
A: Its pIC50 is under 5.00.

Q: With Cc1ncsc1-c1ccc(CNC(=O)[C@@H]2C[C@@H](O)CN2C(=O)[C@@H](NC(=O)CCCCCCCNC(=O)CN2CCC(n3cc(-c4cnc5cccc(-c6cc(F)c(CN7CCOCC7)c(F)c6)c5n4)cn3)CC2)C(C)(C)C)cc1 [JA-156, (2S,4R)-1-((S)-2-(8-(2-(4-(4-(8-(3,5-Difluoro-4-(morpholinomethyl)phenyl)quinoxalin-2-yl)-1H-pyrazol-1-yl)piperidin-1-yl)acetamido)octanamido)-3,3-dimethylbutanoyl)-4-hydroxy-N-(4-(4-methylthiazol-5-yl)benzyl)pyrrolidine-2-carboxamide] as the molecule, how does the pIC50 read?
A: Its pIC50 is 5.44.

Q: Cc1ncsc1-c1ccc(CNC(=O)[C@@H]2C[C@@H](O)CN2C(=O)[C@@H](NC(=O)COCCOCCOCCNC(=O)CN2CCC(n3cc(-c4cnc5cccc(-c6cc(F)c(CN7CCOCC7)c(F)c6)c5n4)cn3)CC2)C(C)(C)C)cc1 [JA-157, (2S,4R)-1-((S)-2-(tert-Butyl)-17-(4-(4-(8-(3,5-Difluoro-4-(morpholinomethyl)phenyl)quinoxalin-2-yl)-1H-pyrazol-1-yl)piperidin-1-yl)-4,16-dioxo-6,9,12-trioxa-3,15-diazaheptadecanoyl)-4-hydroxy-N-(4-(4-methylthiazol-5-yl)benzyl)pyrrolidine-2-carboxamide] was tested. Which pIC50 did it give?
A: Its pIC50 is under 5.00.

Q: Cc1ncsc1-c1ccc(CNC(=O)[C@@H]2C[C@@H](O)CN2C(=O)[C@@H](NC(=O)CNC(=O)CN2CCC(n3cc(-c4cnc5cccc(-c6cc(F)c(CN7CCOCC7)c(F)c6)c5n4)cn3)CC2)C(C)(C)C)cc1 [JA-158, (2S,4R)-1-((S)-2-(2-(2-(4-(4-(8-(3,5-Difluoro-4-(morpholinomethyl)phenyl)quinoxalin-2-yl)-1H-pyrazol-1-yl)piperidin-1-yl)acetamido)acetamido)-3,3-dimethylbutanoyl)-4-hydroxy-N-(4-(4-methylthiazol-5-yl)benzyl)pyrrolidine-2-carboxamide] was tested. Which pIC50 did it give?
A: Its pIC50 is under 5.00.
